In patent publication US9108903B2, “Amides as modulators of sodium channels” (VERTEX PHARMACEUTICALS INCORPORATED, priority 2013, dated 2015):

biological target: human Nav1.8 (Homo sapiens (Human), UniProt Q9Y5Y9); assay: E-VIPR optical membrane potential assay with electrical stimulation; type: cell-based; details: HEK cells expressing human Nav1.8
Description: Assays for Detecting and Measuring NaV Inhibition Properties of Compounds E-VIPR Optical Membrane Potential Assay Method with Electrical Stimulation
Sodium channels are voltage-dependent proteins that can be activated by inducing membrane voltage changes by applying electric fields. The electrical stimulation instrument and methods of use are described in Ion Channel Assay Methods PCT/US01/21652, herein incorporated by reference and are referred to as E-VIPR. The instrument comprises a microtiter plate handler, an optical system for exciting the coumarin dye while simultaneously recording the coumarin and oxonol emissions, a waveform generator, a current- or voltage-controlled amplifier, and a device for inserting electrodes in well. Under integrated computer control, this instrument passes user-programmed electrical stimulus protocols to cells within the wells of the microtiter plate.
24 hours before the assay on E-VIPR, HEK cells expressing human Nav1.8 were seeded in 384-well poly-lysine coated plates at 15,000-20,000 cells per well. HEK cells were grown in media (exact composition is specific to each cell type and NaV subtype) supplemented with 10% FBS (Fetal Bovine Serum, qualified; GibcoBRL #16140-071) and 1% Pen-Strep (Penicillin-Streptomycin; GibcoBRL #15140-122). Cells were grown in vented cap flasks, in 90% humidity and 5% CO2.
100 mg/mL Pluronic F-127 (Sigma #P2443), in dry DMSO
Compound Plates: 384-well round bottom plate, e.g. Corning 384-well Polypropylene Round Bottom #3656
Cell Plates: 384-well tissue culture treated plate, e.g. Greiner #781091-1B
Bath1 buffer: Glucose 10 mM (1.8 g/L), Magnesium Chloride (Anhydrous), 1 mM (0.095 g/L), Calcium Chloride, 2 mM (0.222 g/L), HEPES 10 mM (2.38 g/L), Potassium Chloride, 4.5 mM (0.335 g/L), Sodium Chloride 160 mM (9.35 g/L).
Hexyl Dye Solution: Bath1 Buffer+0.5% β-cyclodextrin (make this prior to use, Sigma #C4767), 8 μM CC2-DMPE+2.5 μM DiSBAC6(3). To make the solution added volume of 10% Pluronic F127 stock equal to volumes of CC2-DMPE+DiSBAC6(3). The order of preparation was first mix Pluronic and CC2-DMPE, then added DiSBAC6(3) while vortexing, then added Bath1+β-Cyclodextrin.
1) Pre-spotted compounds (in neat DMSO) into compound plates. Vehicle control (neat DMSO), the positive control (20 mM DMSO stock tetracaine, 125 μM final in assay) and test compounds were added to each well at 160× desired final concentration in neat DMSO. Final compound plate volume was 80 μL (80-fold intermediate dilution from 1 μL DMSO spot; 160-fold final dilution after transfer to cell plate). Final DMSO concentration for all wells in assay was 0.625%.
2) Prepared Hexyl Dye Solution.
3) Prepared cell plates. On the day of the assay, medium was aspirated and cells were washed three times with 100 μL of Bath1 Solution, maintaining 25 μL residual volume in each well.
4) Dispensed 25 μL per well of Hexyl Dye Solution into cell plates. Incubated for 20-35 minutes at room temp or ambient conditions.
5) Dispensed 80 μL per well of Bath1 into compound plates. Acid Yellow-17 (1 mM) was added and Potassium Chloride was altered from 4.5 to 20 mM depending on the NaV subtype and assay sensitivity.
6) Washed cell plates three times with 100 μL per well of Bath1, leaving 25 μL of residual volume. Then transfered 25 uL per well from Compound Plates to Cell Plates. Incubated for 20-35 minutes at room temp/ambient condition.
7) Read Plate on E-VIPR. Used the current-controlled amplifier to deliver stimulation wave pulses for 10 seconds and a scan rate of 200 Hz. A pre-stimulus recording was performed for 0.5 seconds to obtain the un-stimulated intensities baseline. The stimulatory waveform was followed by 0.5 seconds of post-stimulation recording to examine the relaxation to the resting state.
Data was analyzed and reported as normalized ratios of emission intensities measured in the 460 nm and 580 nm channels. The response as a function of time was reported as the ratios obtained using the following formula: […]

human Nav1.8, sequence (Q9Y5Y9 whole entry): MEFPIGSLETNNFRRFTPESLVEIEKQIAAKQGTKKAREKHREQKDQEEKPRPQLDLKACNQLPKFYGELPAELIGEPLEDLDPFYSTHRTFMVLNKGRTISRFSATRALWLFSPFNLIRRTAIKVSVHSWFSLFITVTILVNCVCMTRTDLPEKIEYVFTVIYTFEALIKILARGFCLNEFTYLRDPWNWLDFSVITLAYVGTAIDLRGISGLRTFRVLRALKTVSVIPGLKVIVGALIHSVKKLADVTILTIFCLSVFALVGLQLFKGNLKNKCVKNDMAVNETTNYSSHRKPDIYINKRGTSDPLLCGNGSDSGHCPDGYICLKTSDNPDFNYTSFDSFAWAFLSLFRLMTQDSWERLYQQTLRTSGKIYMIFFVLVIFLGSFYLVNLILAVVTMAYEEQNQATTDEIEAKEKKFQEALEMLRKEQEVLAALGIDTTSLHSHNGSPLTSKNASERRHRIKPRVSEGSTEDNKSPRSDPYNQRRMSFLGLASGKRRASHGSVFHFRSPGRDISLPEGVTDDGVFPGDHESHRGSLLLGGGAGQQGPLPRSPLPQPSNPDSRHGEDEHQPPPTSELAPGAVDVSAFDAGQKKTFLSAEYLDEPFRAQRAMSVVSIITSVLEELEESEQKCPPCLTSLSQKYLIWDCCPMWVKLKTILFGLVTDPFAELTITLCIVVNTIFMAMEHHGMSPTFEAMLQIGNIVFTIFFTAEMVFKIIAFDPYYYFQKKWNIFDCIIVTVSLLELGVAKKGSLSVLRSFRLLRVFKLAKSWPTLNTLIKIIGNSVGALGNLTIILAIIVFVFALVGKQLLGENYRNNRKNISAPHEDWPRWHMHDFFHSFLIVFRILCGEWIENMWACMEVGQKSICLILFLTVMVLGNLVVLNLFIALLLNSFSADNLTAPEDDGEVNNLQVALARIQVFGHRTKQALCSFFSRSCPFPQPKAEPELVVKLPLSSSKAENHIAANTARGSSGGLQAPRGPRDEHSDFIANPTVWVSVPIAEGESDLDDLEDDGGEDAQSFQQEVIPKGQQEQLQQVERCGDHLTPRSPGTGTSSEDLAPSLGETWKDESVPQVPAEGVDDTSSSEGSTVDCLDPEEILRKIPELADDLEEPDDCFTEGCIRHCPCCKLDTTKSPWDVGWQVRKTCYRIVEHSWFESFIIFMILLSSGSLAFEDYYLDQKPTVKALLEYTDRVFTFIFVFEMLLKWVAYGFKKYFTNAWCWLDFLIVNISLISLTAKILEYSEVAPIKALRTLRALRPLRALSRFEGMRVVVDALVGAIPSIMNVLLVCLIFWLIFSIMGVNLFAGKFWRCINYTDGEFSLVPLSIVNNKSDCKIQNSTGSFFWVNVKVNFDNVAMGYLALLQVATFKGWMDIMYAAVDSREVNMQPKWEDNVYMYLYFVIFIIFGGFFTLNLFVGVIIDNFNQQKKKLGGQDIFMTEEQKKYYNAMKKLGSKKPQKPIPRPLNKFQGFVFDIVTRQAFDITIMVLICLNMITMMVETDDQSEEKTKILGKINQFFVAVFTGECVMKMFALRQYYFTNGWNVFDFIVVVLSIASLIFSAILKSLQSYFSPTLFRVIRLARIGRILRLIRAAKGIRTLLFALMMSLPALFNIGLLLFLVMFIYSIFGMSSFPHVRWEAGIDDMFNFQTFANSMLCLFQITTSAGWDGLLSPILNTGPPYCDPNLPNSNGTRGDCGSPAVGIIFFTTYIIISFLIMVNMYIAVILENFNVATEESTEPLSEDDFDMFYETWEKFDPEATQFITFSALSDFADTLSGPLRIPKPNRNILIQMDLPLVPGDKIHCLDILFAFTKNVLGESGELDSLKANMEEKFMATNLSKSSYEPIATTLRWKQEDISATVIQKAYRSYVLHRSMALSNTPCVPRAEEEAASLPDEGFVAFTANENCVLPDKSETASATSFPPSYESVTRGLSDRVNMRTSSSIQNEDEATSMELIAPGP

Row | SMILES | IC50 [nM]
1 | COc1cc(Cl)ccc1Oc1ccc(C(F)(F)F)cc1C(=O)Nc1ccc(C(=O)O)nc1 [Compound 66, 5-(2-(4-chloro-2-methoxyphenoxy)-5-(trifluoromethyl)benzamido)picolinic acid] | 68
2 | COc1ccc(Oc2ccc(C(F)(F)F)cc2C(=O)Nc2ccc(C(=O)O)nc2)c(C)c1 [Compound 67, 5-(2-(4-methoxy-2-methylphenoxy)-5-(trifluoromethyl)benzamido)picolinic acid] | 79
3 | COc1ccc(Oc2ccc(C(F)(F)F)cc2C(=O)Nc2ccc(C(=O)O)nc2)c(Cl)c1 [Compound 68, 5-(2-(2-chloro-4-methoxyphenoxy)-5-(trifluoromethyl)benzamido)picolinic acid] | 135
4 | COc1c(F)cccc1Oc1ccc(C(F)(F)F)cc1C(=O)Nc1ccc(C(=O)O)nc1 [Compound 69, 5-(2-(3-fluoro-2-methoxyphenoxy)-5-(trifluoromethyl)benzamido)picolinic acid] | 135
5 | O=C(O)c1ccc(NC(=O)c2cc(C(F)(F)F)ccc2Oc2ccccc2)cn1 [Compound 70, 5-(2-phenoxy-5-(trifluoromethyl)benzamido)picolinic acid] | 985
6 | O=C(O)c1ccc(NC(=O)c2cc(C(F)(F)F)ccc2Oc2ccc(F)cc2)cn1 [Compound 71, 5-(2-(4-fluorophenoxy)-5-(trifluoromethyl)benzamido)picolinic acid] | 285
7 | COc1cc(F)ccc1Oc1cc(C(F)(F)C(F)(F)F)ccc1C(=O)Nc1ccc(C(=O)O)nc1 [Compound 72, 5-(2-(4-fluoro-2-methoxyphenoxy)-4-(perfluoroethyl)benzamido)picolinic acid] | 35
8 | O=C(O)c1ccc(NC(=O)c2ccc(C(F)(F)C(F)(F)F)cc2Oc2ccc(F)cc2)cn1 [Compound 73, 5-(2-(4-fluorophenoxy)-4-(perfluoroethyl)benzamido)picolinic acid] | 110
9 | O=C(O)c1ccc(NC(=O)c2c(Oc3ccc(F)cc3Cl)cccc2C(F)(F)F)cn1 [Compound 74, 5-(2-(2-chloro-4-fluorophenoxy)-6-(trifluoromethyl)benzamido)picolinic acid] | 405
10 | Cc1cc(F)ccc1Oc1ccc(C(F)(F)F)cc1C(=O)Nc1ccc(C(=O)O)nc1 [Compound 75, 5-(2-(4-fluoro-2-methylphenoxy)-5-(trifluoromethyl)benzamido)picolinic acid] | 108
